Laboratory results published in article PMC13081163, “Discovery of a novel Nrf2 activator that modulates mitochondrial function in neurons by regulating DHRS3-Nrf2 interaction after ischemic stroke” (Theranostics, 2026).
Read-outs that look alike come from different tables or passages of the source.

How the values were obtained:
[1] = system: ARE-luciferase reporter (Nrf2 activation), Hek-293T cells; assay: ARE-luciferase reporter gene assay; type: cell-based; conditions: Homo sapiens
Method: The Hek-293T cells were cultured in 96-well plates 24 h before transfection with ARE-luciferase reporter plasmid (11548ES03, Yeasen, China) for 48 h according to the manufacturer's instructions. The Firefly luciferase activities was carried out 12 h after the drug treatment, as described by the manufacturer (11412ES81, Yeasen, China).

DHRS3 = assay: Western blotting of DHRS3 in SH-SY5Y cells after OGD/R; type: cell-based, human
Method: The western blotting analysis was conducted as we previously described. First, the total protein was extracted using RIRA buffer and then the protein concentrations were determined using the BCA kit (P0012, Beyotime, China). The extraction of mitochondrial proteins was carried out according to the instructions (C3601, Beyotime, China). The samples were separated electrophoretically and then wet-transferred onto 0.2 μm PVDF membranes (88520, Thermo Scientific, USA). After blocking with 5% non-fat dry milk in Tris-buffered saline (TBS) (pH 7.4) containing 0.1% Tween 20 at room temperature for 2 h, the protein membranes were sequentially immersed with the primary antibody at 4 °C overnight and secondary antibody at room temperature for 1 h. Finally, the membranes were quantified using image analysis system.

[2] = 28-day long-term toxicity in rats (intragastric); type: in vivo, rat; conditions: 28 days intragastric; Oma 10 mg/kg, Cpd.51 1, 3 and 10 mg/kg
Method: During the long-term toxicity test, rats in each group received daily intragastric administration for 28 consecutive days. Animals in the Sham group were administered a mixture of 99% sesame oil and 1% DMSO at a volume of 0.5 mL per rat. Rats in the remaining groups were intragastrically administered varying doses of the respective therapeutic agents.
During the 28-day long-term toxicity study, rats were euthanized following the completion of continuous intragastric administration. Livers and kidneys from both male and female rats in each group were photographed for macroscopic examination, and serum samples were collected for subsequent kit-based analysis. The liver/kidney index was obtained by dividing the weight of the liver/kidney by the body weight.

DHRS3-Nrf2 complex = biological target: T1, DHRS3-Nrf2 complex (Homo sapiens, UniProt O75911); assay: Co-IP of Nrf2-DHRS3 interaction in SH-SY5Y cells; type: cell-based; conditions: 100 nM, physiological and OGD/R conditions
T1 construct: endogenous in cells; host or cells: SH-SY5Y
T1 sequence (O75911 1-302): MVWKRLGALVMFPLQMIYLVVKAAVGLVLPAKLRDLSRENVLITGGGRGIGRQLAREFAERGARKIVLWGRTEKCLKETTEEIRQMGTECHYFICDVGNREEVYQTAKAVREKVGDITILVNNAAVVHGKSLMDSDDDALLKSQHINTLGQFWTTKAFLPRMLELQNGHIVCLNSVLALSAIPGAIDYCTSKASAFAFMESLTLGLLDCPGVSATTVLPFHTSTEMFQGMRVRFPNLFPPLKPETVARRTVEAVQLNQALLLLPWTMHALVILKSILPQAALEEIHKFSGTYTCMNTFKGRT
Method: (§1) Co-IP experiments were performed as described. After SH-SY5Y cells were treated, lysates were collected and incubated with antibodies with rotation for 12 h at 4 °C. Then, they were incubated with protein A/G magnetic beads (88804, Thermo Scientific, USA) as specification. Subsequently, the beads were collected and immune complexes were isolated. Finally, protein complexes were incubated for 5 min at 95 °C after dissolving in the electrophoresis sample buffer, and subjected to western blotting.

Keap1-Nrf2 = biological target: T2, Keap1-Nrf2 (Homo sapiens, UniProt Q14145); assay: Co-IP of Keap1-Nrf2 binding in SH-SY5Y cells; type: cell-based; conditions: 100 nM, physiological and OGD/R conditions
T2 construct: endogenous in cells; host or cells: SH-SY5Y
Method: as §1

[3] = Acute (7-day i.v.) toxicity in rats; type: in vivo, rat; conditions: 10 mg/kg i.v. daily for 7 days
Method: Cpd.51 was dissolved in solvent (10% DMSO, 10% Solutol HS-15 and 80% saline). It was injected (i.v.) at dose of 3 mg/kg or 5 mg/kg in a 0.5 mL volume. The Sham group and Vehicle group were treated simultaneously with an equal volume of solvent. In the experiment to explore the treatment time window, we merely administered the drug to the rats at different time points, while all other procedures remained unchanged. In the short-term toxicity study, 10 mg/kg Cpd.51 and Oma were administered via tail vein injection at 0.5 mL daily for 7 consecutive days.
Glutamic-pyruvic transaminase (GPT) kits (ml092635, mlbio, China), glutamic oxaloacetic transaminase (GOT) kits (ml092714, mlbio, China), creatinine (CRE) kits (M12C4L, mlbio, China) and blood urea nitrogen (BUN) kits (ml076479, China) were used to detect the serum of rats in order to evaluate liver and kidney functions. Male and female rats were randomly divided into Sham group, Cpd.51 group and Oma group. Doses were administered once daily at 10 mg/kg and body weights were recorded accordingly. Sham groups were given the same volume of solvent. After 7 days, the […] were sacrificed, serum was collected and tested according to the instructions.

[4] = Plasma and brain levels after i.v. dosing (blood-brain barrier); type: in vivo, rat; conditions: for concentration at 0.25 h / concentration at 1 h / concentration at 4 h: intravenous, i.v.
Method: Male SD rats were intravenous injection with Cpd.51, blood and brain tissues were collected 15 min, 1 h, 4 h, 6 h, 8 h and 24 h after drug administration. Samples were measured by a Shimadzu chromatography system (Shimadzu, Kyoto, Japan) coupled with an AB Sciex triple quadrupole 4500 mass spectrometer (SCIEX Triple Quad™ 4500 LC-MS/MS, Applied Biosystems Sciex, Ontario, Canada) using Analyst 1.4.2 software. A HPLC column (ACQUITY UPLC BEH C18, 2.1 × 50 mm, 1.7 μm) were used. Protein precipitation method was used for detection: 50 μL plasma sample or brain homogenate sample were added with 200 μL acetonitrile containing internal standard for precipitation, then vortexed for 3 min. The supernatant was injected into system for analysis after centrifugation.

[5] = biological target: Human recombinant Keap1 proteins (Homo sapiens, UniProt Q14145); assay: SPR binding to full-length Keap1; parameters: purchased Sinobiological ME18DE0203; conditions: read-out: KD, full-length Keap1 protein
Method: The binding affinity of Cpd.51 or Oma to Keap1 proteins were measured using a Biacore T200. The overall experimental procedures were based on previous reports, [28]. Human recombinant Keap1 proteins or truncated form of Keap1 (residues 48-180 and residues 48-149) were captured on a CM5 chip by a standard amine coupling procedure. Binding sensorgrams were recorded by injecting various concentrations of Cpd.51 over the immobilized proteins surface. The dissociation constant was obtained by globally fitting the data (to the 1:1 Langmuir binding model using the Biacore Insight evaluation software (Cytiva, Marlborough, MA, USA). Affinity tests for Cpd.51 and DHRS3 were also performed using the aforementioned method.

Sequence of Human recombinant Keap1 proteins (Q14145 whole entry, the tested form may be a part): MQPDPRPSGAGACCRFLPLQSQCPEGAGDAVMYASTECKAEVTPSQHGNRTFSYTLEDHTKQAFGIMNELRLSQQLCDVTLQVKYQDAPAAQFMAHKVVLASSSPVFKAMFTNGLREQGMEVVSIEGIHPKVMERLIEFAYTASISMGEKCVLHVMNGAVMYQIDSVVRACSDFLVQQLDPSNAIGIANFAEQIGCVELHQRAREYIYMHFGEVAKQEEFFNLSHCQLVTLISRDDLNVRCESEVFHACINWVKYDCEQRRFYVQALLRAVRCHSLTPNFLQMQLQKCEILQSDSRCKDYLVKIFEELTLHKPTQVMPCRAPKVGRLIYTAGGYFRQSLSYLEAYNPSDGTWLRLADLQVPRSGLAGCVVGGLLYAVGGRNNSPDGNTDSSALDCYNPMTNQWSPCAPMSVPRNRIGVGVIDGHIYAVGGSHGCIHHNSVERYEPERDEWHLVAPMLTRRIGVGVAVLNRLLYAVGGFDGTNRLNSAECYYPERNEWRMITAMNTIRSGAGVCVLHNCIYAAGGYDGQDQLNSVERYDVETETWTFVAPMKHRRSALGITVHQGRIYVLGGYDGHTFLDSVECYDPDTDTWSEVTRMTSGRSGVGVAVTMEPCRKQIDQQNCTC
T2 sequence (Q14145 whole entry): as the sequence (Q14145 whole entry, the tested form may be a part) above

Structure (SMILES): CC1(C)CCC2(C(=O)NO)CCC3(C)C(C(=O)C=C4C5(C)C=C(C#N)C(=O)C(C)(C)C5CCC43C)C2C1 (stereo not drawn) [Cpd.51]
- EC50 ([1]; HEK-293T, cells transfected with NC-OE control plasmid): 56.7 nM
- EC50 ([1]; Hek-293T cells, 12 h after drug treatment): 48.1 nM
- DHRS3 protein expression induced by OGD/R (DHRS3): substantially attenuated this induction
- body weight [2]: neither compound significantly affected body weight
- plasma markers of hepatic and renal injury [2]: showed no such effects at any dose tested
- DHRS3-Nrf2 complex formation (Co-IP) (DHRS3-Nrf2 complex): substantially reduced DHRS3-Nrf2 complex formation
- amount of Nrf2 bound to Keap1 (Co-IP) (Keap1-Nrf2): reduced the amount of Nrf2 bound to Keap1
- liver hypertrophy, serum GPT and GOT [3]: not observed
- serum CRE and BUN [3]: did not induce these changes
- weight gain [3]: suppressed weight gain
- distribution to brain tissue ([4]; intravenous administration): relatively effective distribution to brain tissue
- concentration at 0.25 h ([4]; male, SD, rat, brain, 5 mg/kg, 0.25 h, read-out: Brain): 86.7 ± 49.3 ng/g
- concentration at 1 h ([4]; male, SD, rat, brain, 5 mg/kg, 1 h, read-out: Brain): 29.5 ± 17.5 ng/g
- concentration at 4 h ([4]; male, SD, rat, brain, 5 mg/kg, 4 h, read-out: Brain): 10.3 ± 4 ng/g
- Kp at 0.25 h ([4]; male, SD, rat, brain, iv, 5 mg/kg, 0.25 h): 0.07 ± 0.04
- Kp at 1 h ([4]; male, SD, rat, brain, iv, 5 mg/kg, 1 h): 0.16 ± 0.12
- Kp at 4 h ([4]; male, SD, rat, brain, iv, 5 mg/kg, 4 h): 0.28 ± 0.14
- concentration at 0.25 h ([4]; male, SD, rat, plasma, 5 mg/kg, 0.25 h, read-out: Plasma): 1290 ± 68 ng/mL
- concentration at 1 h ([4]; male, SD, rat, plasma, 5 mg/kg, 1 h, read-out: Plasma): 198 ± 44 ng/mL
- concentration at 4 h ([4]; male, SD, rat, plasma, 5 mg/kg, 4 h, read-out: Plasma): 39.5 ± 10.4 ng/mL
- Kd [5]: 53900 nM
